From US20250353853A1, “FLAVIVIRUS INHIBITORS” (IRBM S.P.A., priority 2022, published 2025)
Read-outs that look alike come from different tables or passages of the source.

Tests used:
[1] = system: ZIKV replicon in Vero cells; assay: ZIKV Replication Inhibition Assay (replicon, NanoLuc); conditions: Zika virus, Vero, 72 h, read-out: Zika Replicon EC50
[2] = target: West Nile Virus (WNV) NS2B-NS3 protease (West Nile virus (WNV), UniProt P06935); assay: WNV Protease Inhibition Assay; assay type: biochemical
West Nile Virus (WNV) NS2B-NS3 protease, sequence (P06935 1502-1679 limits assumed): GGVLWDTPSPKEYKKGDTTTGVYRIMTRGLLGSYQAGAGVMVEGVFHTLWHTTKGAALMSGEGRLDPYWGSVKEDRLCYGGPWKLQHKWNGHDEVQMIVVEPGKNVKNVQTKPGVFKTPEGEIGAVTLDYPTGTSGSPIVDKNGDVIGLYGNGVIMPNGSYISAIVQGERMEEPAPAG
West Nile Virus (WNV) NS2B-NS3 protease, sequence (P06935 1371-1501 partner limits assumed): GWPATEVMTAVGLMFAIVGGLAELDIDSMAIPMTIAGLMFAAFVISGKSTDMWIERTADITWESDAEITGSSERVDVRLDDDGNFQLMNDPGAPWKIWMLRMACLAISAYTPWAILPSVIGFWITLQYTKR
Description: WNV Protease Inhibition Assay

[3] = 2 nM protease, 10 μM pERTKR-AMC substrate, read-out: WNV Protease IC50

Compound: O=C([N-]c1c[n+](Cc2ccc(I)cc2)no1)Nc1cncc(C(F)(F)F)c1 [Example 55, (3-(4-iodobenzyl)-1,2,3-oxadiazol-3-ium-5-yl)((5-(trifluoromethyl)pyridin-3-yl)carbamoyl)amide]
- EC50 [1]: 100 to 1000 nM
- IC50 [2]: 100 to 1000 nM

Compound: Cc1noc(C)c1-c1ccc(C[n+]2cc([N-]C(=O)Nc3cccc(C(F)F)c3)on2)nc1 [Example 168, ((3-(difluoromethyl)phenyl)carbamoyl)(3-((5-(3,5-dimethylisoxazol-4-yl)pyridin-2-yl)methyl)-1,2,3-oxadiazol-3-ium-5-yl)amide]
- EC50 [1]: 100 to 1000 nM
- IC50 [2]: 100 to 1000 nM

Compound: Cc1noc(C)c1-c1ccc(C[n+]2cc([N-]C(=O)Nc3ccc(Cl)c(C(F)(F)F)c3)on2)nc1 [Example 157, ((4-chloro-3-(trifluoromethyl)phenyl)carbamoyl)(3-((5-(3,5-dimethylisoxazol-4-yl)pyridin-2-yl)methyl)-1,2,3-oxadiazol-3-ium-5-yl)amide]
- EC50 [1]: 100 to 1000 nM
- IC50 [2]: 1000 to 20000 nM

Compound: COc1ncc(-c2ccc(C[n+]3cc([N-]C(=O)Nc4cccc(C(F)(F)F)c4)on3)cc2)cn1 [Example 41, (3-(4-(2-methoxypyrimidin-5-yl)benzyl)-1,2,3-oxadiazol-3-ium-5-yl)((3-(trifluoromethyl)phenyl)carbamoyl)amide]
- EC50 [1]: 100 to 1000 nM
- IC50 [2, 3]: < 100 nM

Compound: O=C([N-]c1c[n+](Cc2ccc(-c3cncnc3C3CC3)cn2)no1)Nc1cccc(C(F)(F)F)c1 [Example 155, (3-((5-(4-cyclopropylpyrimidin-5-yl)pyridin-2-yl)methyl)-1,2,3-oxadiazol-3-ium-5-yl)((3-(trifluoromethyl)phenyl)carbamoyl)amide]
- EC50 [1]: 100 to 1000 nM
- IC50 [2]: 100 to 1000 nM

Compound: Cc1ncnc(C)c1-c1ccc([C@H](C)[n+]2cc([N-]C(=O)Nc3ccnc(C(F)(F)F)c3)on2)cc1 [Example 190, (S)-(3-(1-(4-(4,6-dimethylpyrimidin-5-yl)phenyl)ethyl)-1,2,3-oxadiazol-3-ium-5-yl)((2-(trifluoromethyl)pyridin-4-yl)carbamoyl)amide]
- EC50 [1]: 100 to 1000 nM
- IC50 [2]: < 100 nM

Compound: COc1cc(-c2ccc(C[n+]3cc([N-]C(=O)Nc4cccc(C(F)(F)F)c4)on3)nc2)c(OC)nn1 [Example 181, (3-((5-(3,6-dimethoxypyridazin-4-yl)pyridin-2-yl)methyl)-1,2,3-oxadiazol-3-ium-5-yl)((3-(trifluoromethyl)phenyl)carbamoyl)amide]
- EC50 [1]: < 100 nM
- IC50 [2]: 100 to 1000 nM

Compound: C[C@@H](c1ccc(Br)cc1)[n+]1cc([N-]C(=O)Nc2cccc(C(F)(F)F)c2)on1 [Example 69, (S)-(3-(1-(4-bromophenyl)ethyl)-1,2,3-oxadiazol-3-ium-5-yl)((3-(trifluoromethyl)phenyl)carbamoyl)amide]
- EC50 [1]: 100 to 1000 nM
- IC50 [2]: 1000 to 20000 nM

Compound: O=C([N-]c1c[n+](Cc2ccc(-c3cncnc3)cc2)no1)Nc1cccc(C(F)(F)F)c1 [Example 26, (3-(4-(Pyrimidin-5-yl)benzyl)-1,2,3-oxadiazol-3-ium-5-yl)((3-(trifluoromethyl)phenyl)carbamoyl)amide]
- EC50 [1]: 100 to 1000 nM
- IC50 [2]: 100 to 1000 nM

Compound: COc1cc(-c2ccc(C[n+]3cc([N-]C(=O)Nc4cccc(C(F)(F)F)c4)on3)cc2)ccn1 [Example 63, (3-(4-(2-methoxypyridin-4-yl)benzyl)-1,2,3-oxadiazol-3-ium-5-yl)((3-(trifluoromethyl)phenyl)carbamoyl)amide]
- EC50 [1]: 100 to 1000 nM
- IC50 [2]: 100 to 1000 nM

Compound: O=C([N-]c1c[n+](Cc2ccc(-c3ccncc3)cc2)no1)Nc1cccc(C(F)(F)F)c1 [Example 39, (3-(4-(pyridin-4-yl)benzyl)-1,2,3-oxadiazol-3-ium-5-yl)((3-(trifluoromethyl)phenyl)carbamoyl)amide]
- EC50 [1]: 100 to 1000 nM
- IC50 [2]: 100 to 1000 nM

Compound: Cc1cc(NC(=O)[N-]c2c[n+](Cc3ccc(-c4c(C)noc4C)cn3)no2)cc(C(F)(F)F)c1 [Example 156, (3-((5-(3,5-dimethylisoxazol-4-yl)pyridin-2-yl)methyl)-1,2,3-oxadiazol-3-ium-5-yl)((3-methyl-5-(trifluoromethyl)phenyl)carbamoyl)amide]
- EC50 [1]: 100 to 1000 nM
- IC50 [2]: 1000 to 20000 nM

Compound: C[C@H](c1ccc(Br)cc1)[n+]1cc([N-]C(=O)Nc2cncc(C(F)(F)F)c2)on1 [Example 73, (R)-(3-(1-(4-bromophenyl)ethyl)-1,2,3-oxadiazol-3-ium-5-yl)((5-(trifluoromethyl)pyridin-3-yl)carbamoyl)amide]
- EC50 [1]: 1000 to 20000 nM
- IC50 [2]: 1000 to 20000 nM

Compound: O=C([N-]c1c[n+](Cc2ccc(-c3cnccn3)cc2)no1)Nc1cccc(C(F)(F)F)c1 [Example 42, (3-(4-(pyrazin-2-yl)benzyl)-1,2,3-oxadiazol-3-ium-5-yl)((3-(trifluoromethyl)phenyl)carbamoyl)amide]
- EC50 [1]: 100 to 1000 nM
- IC50 [2]: 100 to 1000 nM

Compound: COc1nccc(C)c1-c1ccc(C[n+]2cc([N-]C(=O)Nc3cccc(C(F)(F)F)c3)on2)nc1 [Example 159, (3-((2′-methoxy-4′-methyl-[3,3′-bipyridin]-6-yl)methyl)-1,2,3-oxadiazol-3-ium-5-yl)((3-(trifluoromethyl)phenyl)carbamoyl)amide]
- EC50 [1]: < 100 nM
- IC50 [2]: 100 to 1000 nM

Compound: Cc1nn(C)c(C)c1-c1ccc(C[n+]2cc([N-]C(=O)Nc3cncc(C(F)(F)F)c3)on2)nc1 [Example 147, ((5-(trifluoromethyl)pyridin-3-yl)carbamoyl)(3-((5-(1,3,5-trimethyl-1H-pyrazol-4-yl)pyridin-2-yl)methyl)-1,2,3-oxadiazol-3-ium-5-yl)amide]
- EC50 [1]: 100 to 1000 nM
- IC50 [2, 3]: < 100 nM

Compound: O=C([N-]c1c[n+](Cc2cccc(-c3cccnc3)c2)no1)Nc1cccc(C(F)(F)F)c1 [Example 51, (3-(3-(pyridin-3-yl)benzyl)-1,2,3-oxadiazol-3-ium-5-yl)((3-(trifluoromethyl)phenyl)carbamoyl)amide]
- EC50 [1]: 100 to 1000 nM
- IC50 [2]: 100 to 1000 nM

Compound: Cn1cc(-c2ccc(C[n+]3cc([N-]C(=O)Nc4cccc(C(F)(F)F)c4)on3)cc2)cn1 [Example 23, (3-(4-(1-methyl-1H-pyrazol-4-yl)benzyl)-1,2,3-oxadiazol-3-ium-5-yl)((3-(trifluoromethyl)phenyl)carbamoyl)amide]
- EC50 [1]: 100 to 1000 nM
- IC50 [2]: 100 to 1000 nM

Compound: Cc1noc(C)c1-c1ccc(C[n+]2cc([N-]C(=O)Nc3cccc(C4CC4)c3)on2)nc1 [Example 142, ((3-cyclopropylphenyl)carbamoyl)(3-((5-(3,5-dimethylisoxazol-4-yl)pyridin-2-yl)methyl)-1,2,3-oxadiazol-3-ium-5-yl)amide]
- EC50 [1]: 100 to 1000 nM
- IC50 [2]: 100 to 1000 nM

Compound: O=C([N-]c1c[n+](C(c2ccccc2)C(F)(F)F)no1)Nc1cccc(C(F)(F)F)c1 (stereo not drawn) [Example 44, (3-(2,2,2-trifluoro-1-phenylethyl)-1,2,3-oxadiazol-3-ium-5-yl)((3-(trifluoromethyl)phenyl)carbamoyl)amide]
- EC50 [1]: > 20000 nM
- IC50 [2]: 1000 to 20000 nM

Compound: O=C([N-]c1c[n+](Cc2ccc(-c3c(Cl)ncnc3Cl)cn2)no1)Nc1cccc(C(F)(F)F)c1 [Example 180, (3-((5-(4,6-dichloropyrimidin-5-yl)pyridin-2-yl)methyl)-1,2,3-oxadiazol-3-ium-5-yl)((3-(trifluoromethyl)phenyl)carbamoyl)amide]
- EC50 [1]: 1000 to 20000 nM
- IC50 [2, 3]: < 100 nM

Compound: COc1ncc(-c2ccc(C[n+]3cc([N-]C(=O)Nc4cncc(C(F)(F)F)c4)on3)cc2)cn1 [Example 58, (3-(4-(2-methoxypyrimidin-5-yl)benzyl)-1,2,3-oxadiazol-3-ium-5-yl)((5-(trifluoromethyl)pyridin-3-yl)carbamoyl)amide]
- EC50 [1]: 100 to 1000 nM
- IC50 [2, 3]: < 100 nM

Compound: O=C([N-]c1c[n+]([C@@H](CO)Cc2ccccc2)no1)Nc1cccc(C(F)(F)F)c1 [Example 45]
- IC50 ([2]; read-out: WNV Protease IC50, 2 nM protease, 10 μM pERTKR-AMC substrate): 1000 to 20000 nM

Compound: N#Cc1ncncc1-c1ccc(C[n+]2cc([N-]C(=O)Nc3cncc(C(F)(F)F)c3)on2)nc1 [Example 144, (3-((5-(4-cyanopyrimidin-5-yl)pyridin-2-yl)methyl)-1,2,3-oxadiazol-3-ium-5-yl)((5-(trifluoromethyl)pyridin-3-yl)carbamoyl)amide]
- EC50 [1]: 1000 to 20000 nM
- IC50 [2, 3]: < 100 nM

Compound: O=C([N-]c1c[n+](Cc2cccc(-c3cncnc3)c2)no1)Nc1cccc(C(F)(F)F)c1 [Example 50, (3-(3-(Pyrimidin-5-yl)benzyl)-1,2,3-oxadiazol-3-ium-5-yl)((3-(trifluoromethyl)phenyl)carbamoyl)amide]
- EC50 [1]: 100 to 1000 nM
- IC50 [2]: 100 to 1000 nM

Compound: O=C([N-]c1c[n+](Cc2ccc(Br)cc2)no1)Nc1cccc(C(F)(F)F)c1 [Example 19, (3-(4-bromobenzyl)-1,2,3-oxadiazol-3-ium-5-yl)((3-(trifluoromethyl)phenyl)carbamoyl)amide]
- EC50 [1]: 100 to 1000 nM
- IC50 [2, 3]: < 100 nM

Compound: COc1ncc(-c2ccc(C[n+]3cc([N-]C(=O)Nc4cccc(C(F)(F)F)c4)on3)nc2)c(C)n1 [Example 134, (3-((5-(2-methoxy-4-methylpyrimidin-5-yl)pyridin-2-yl)methyl)-1,2,3-oxadiazol-3-ium-5-yl)((3-(trifluoromethyl)phenyl)carbamoyl)amide]
- EC50 [1]: < 100 nM
- IC50 [2, 3]: < 100 nM

Compound: O=C([N-]c1c[n+](Cc2ccc(-c3c(F)cncc3F)cn2)no1)Nc1cccc(C(F)(F)F)c1 [Example 170, (3-((3′,5′-difluoro-[3,4′-bipyridin]-6-yl)methyl)-1,2,3-oxadiazol-3-ium-5-yl)((3-(trifluoromethyl)phenyl)carbamoyl)amide]
- EC50 [1]: < 100 nM
- IC50 [2]: 100 to 1000 nM

Compound: COc1ncnc(C)c1-c1ccc(C[n+]2cc([N-]C(=O)Nc3cccc(C(F)(F)F)c3)on2)nc1 [Example 135, (3-((5-(4-methoxy-6-methylpyrimidin-5-yl)pyridin-2-yl)methyl)-1,2,3-oxadiazol-3-ium-5-yl)((3-(trifluoromethyl)phenyl)carbamoyl)amide]
- EC50 [1]: < 100 nM
- IC50 [2, 3]: < 100 nM
